Laboratory results from ChEMBL document CHEMBL3044970, “Isoniazid: the magic molecule” (2012).
Values after ≈ are worked out from the molar mass of the structure shown.

What was measured:
Assay type in all cases: functional
[1] = test system: Mycobacterium tuberculosis; assay: Antimicrobial activity against Mycobacterium tuberculosis H37Rv infected macrophage model
[2] = test system: Mycobacterium tuberculosis; assay: Antimicrobial activity against Mycobacterium tuberculosis H37Rv
[3] = test system: Mycobacterium tuberculosis; assay: Ratio of INH MIC to compound MIC for Mycobacterium tuberculosis H37Rv
[4] = test system: Mycobacterium tuberculosis; assay: Antimicrobial activity against Mycobacterium tuberculosis H4
[5] = test system: Mycobacterium tuberculosis; assay: Antimicrobial activity against Mycobacterium tuberculosis
[6] = test system: Mycobacterium tuberculosis; assay: Antimicrobial activity against Mycobacterium tuberculosis H37Rv by agar dilution method relative to isonicotinoyl hydrazide

Question: `O=C1NC(NNC(=O)c2ccncc2)=N/C1=C\c1cccc(Cl)c1` was tested. Which MIC [1] did it give?
Answer: 0.8 µg/mL (≈ 2.34 µM)

Question: Which MIC [2] does the source give for `COc1ccc(C2SCC(=O)N2NC(=O)c2ccncc2)cc1O` (centres undefined) here?
Answer: 0.31 µg/mL

Question: How did the MIC [2] turn out when `COc1ccc(C2C(Cl)C(=O)N2NC(=O)c2ccncc2)cc1O` (centres undefined) was run?
Answer: 0.31 µg/mL

Question: What does the source list for `COc1cc(C2=NN(C(=O)c3ccncc3)C(c3ccc(O)cc3)C2)ccc1OCC(=O)O` (centres undefined)?
Answer: MIC [2]: 0.12 µM; Ratio [3]: 5.6

Question: With `O=C(c1ccncc1)N1N=C(c2ccccn2)CC1c1cccc(Cl)c1` (centres undefined) as the compound, how does the MIC [4] read?
Answer: 8 µg/mL (≈ 22 µM)

Question: And the MIC [5]?
Answer: 8 µg/mL (≈ 22 µM)

Question: What does the source list for `O=C(c1ccncc1)N1N=C(c2ccccn2)CC1c1ccc(Cl)cc1` (centres undefined)?
Answer: MIC [4]: 8 µg/mL (≈ 22 µM); MIC [5]: 8 µg/mL (≈ 22 µM)

Question: Which MIC [4] does the source give for `Cc1ccccc1C1CC(c2ccccn2)=NN1C(=O)c1ccncc1` (centres undefined) here?
Answer: 8 µg/mL (≈ 23.4 µM)

Question: What about the MIC [5] of the same compound?
Answer: 8 µg/mL (≈ 23.4 µM)

Question: How did the MIC [4] turn out when `O=C(c1ccncc1)N1N=C(c2ccccn2)CC1c1ccccc1` (centres undefined) was run?
Answer: 8 µg/mL (≈ 24.4 µM)

Question: What about the MIC [5] of the same compound?
Answer: 8 µg/mL (≈ 24.4 µM)

Question: For `O=C(c1ccncc1)N1N=C(c2ccccn2)CC1c1ccccc1Cl` (centres undefined), which MIC [4] is on record?
Answer: 8 µg/mL (≈ 22 µM)

Question: What about the MIC [5] of the same compound?
Answer: 8 µg/mL (≈ 22 µM)

Question: How did the Ratio [6] turn out when `O=C(NNC(=S)Nc1ccccc1C(F)(F)F)c1ccncc1` was run?
Answer: 1.24

Question: And the MIC [2]?
Answer: 0.58 µM

Question: How did the MIC [5] turn out when `NNC(=O)c1ccncc1` [ISONIAZID] was run?
Answer: 0.05 µg/mL (≈ 0.365 µM)

Question: How did the MIC [2] turn out when `CO[C@H]1/C=C/O[C@@]2(C)Oc3c(C)c(O)c4c(O)c(c(/C=N/N5CCN(C)CC5)c(O)c4c3C2=O)NC(=O)/C(C)=C\C=C\[C@H](C)[C@H](O)[C@@H](C)[C@@H](O)[C@@H](C)[C@H](OC(C)=O)[C@@H]1C` [RIFAMPIN] was run?
Answer: 0.2 µg/mL
